Measurements taken from PMC12736535, “Generation and Characterization of Novel Contilisant+Tubastatin a Multitarget Small Molecules Against Glioblastoma” (Pharmaceutics, 2025).

Tests used:
[1] = In vivo toxicity, body weight; design: species or system athymic nude-Foxn1nu mice; conditions: intraperitoneal, 3 days per week
recombinant hMAO-B = target: T1, recombinant hMAO-B (Homo sapiens, UniProt P27338); assay: MAO-B inhibition assay; format: biochemical
T1 sequence (P27338 1-520): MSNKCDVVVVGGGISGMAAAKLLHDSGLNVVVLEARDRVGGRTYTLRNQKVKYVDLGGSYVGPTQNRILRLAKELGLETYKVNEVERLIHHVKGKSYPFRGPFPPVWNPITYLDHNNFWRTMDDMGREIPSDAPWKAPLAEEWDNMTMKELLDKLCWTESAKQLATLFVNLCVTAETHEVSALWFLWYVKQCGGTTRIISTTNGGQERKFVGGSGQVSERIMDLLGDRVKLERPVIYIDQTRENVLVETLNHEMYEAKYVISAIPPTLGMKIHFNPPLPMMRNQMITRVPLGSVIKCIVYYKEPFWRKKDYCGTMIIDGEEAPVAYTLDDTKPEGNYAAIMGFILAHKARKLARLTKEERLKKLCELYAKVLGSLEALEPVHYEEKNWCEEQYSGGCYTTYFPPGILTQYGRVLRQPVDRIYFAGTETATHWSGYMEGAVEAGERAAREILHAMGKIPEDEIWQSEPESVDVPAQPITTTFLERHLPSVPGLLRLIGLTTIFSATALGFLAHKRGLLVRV
Experimental: […] Next, horseradish peroxidase (200 U/mL), Ampliflu Red (20 mM) and tyramine hydrochloride (100 mM) (Sigma-Aldrich) were added, and absorbance was measured at 570 nm every 5 min for 30 min. The percentage of inhibition was calculated from the absorbance values.

U87 subcutaneous tumors = assay: Subcutaneous U87 tumor growth and tumor immunohistochemistry; format: in vivo, athymic nude-Foxn1nu mice; conditions: 50 mg/kg i.p.
Experimental: For carcinogenesis studies, subcutaneous tumor growth experiments were performed via the injection of 5 × 10^5 cells into two bottom flanks of athymic nude-Foxn1^nu mice. Once tumors reached a size of 25–50 mm^3, mice were sorted into different treatment groups based on their gender and tumor size. An external caliper was used for tumor size measurement, and the tumor volume was estimated using the formula V = L·W^2·0.5 (where L is tumor length and W is tumor width). […] Sample size was calculated, taking into account that control groups could have an average size of 700 mm^3 and we wanted to detect a difference of […]. For the cytotoxic experiment, 8 controls and 8 treated animals were used, while for the efficacy experiment 12 control animals and 8 treated animals were used.
Subcutaneous tumors were extracted, fixed with 4% formaldehyde for 48 h and embedded in paraffin. Tumor sections were obtained and stainings for Ki67 (Ab16667, Abcam), acetyl H3 (9649, Cell Signaling) and acetylated α-tubulin (ab179484, Abcam) were performed. A ZEISS Axioscan 7 slide scanner was used to capture images of the stainings, and analyses were performed using Qupath.

BChE [2] = target: T2, BChE (Homo sapiens, UniProt P06276); assay: BChE inhibition, Ellman's colorimetric method; format: biochemical; conditions: 10 μM; read-out: ChE inhibition BChE %
T2 sequence (P06276 29-602, species assumed): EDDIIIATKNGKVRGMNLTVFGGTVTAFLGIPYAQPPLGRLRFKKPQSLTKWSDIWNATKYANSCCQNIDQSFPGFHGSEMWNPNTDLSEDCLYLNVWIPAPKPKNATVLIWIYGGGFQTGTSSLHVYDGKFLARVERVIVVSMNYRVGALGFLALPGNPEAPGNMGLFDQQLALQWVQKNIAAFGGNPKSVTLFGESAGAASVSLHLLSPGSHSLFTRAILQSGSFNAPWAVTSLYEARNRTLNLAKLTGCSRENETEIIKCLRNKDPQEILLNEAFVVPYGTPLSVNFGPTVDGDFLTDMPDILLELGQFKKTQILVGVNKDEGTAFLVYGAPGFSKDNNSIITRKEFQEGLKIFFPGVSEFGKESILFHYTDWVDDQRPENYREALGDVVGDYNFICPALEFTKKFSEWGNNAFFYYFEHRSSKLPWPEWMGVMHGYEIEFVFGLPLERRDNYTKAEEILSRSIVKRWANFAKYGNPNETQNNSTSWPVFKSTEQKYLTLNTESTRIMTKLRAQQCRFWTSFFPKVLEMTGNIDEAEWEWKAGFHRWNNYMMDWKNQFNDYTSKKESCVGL
Experimental: (§1) The inhibitory capacity of the compounds on ChEs was assessed using Ellman’s colorimetric method. Briefly, an inhibitor solution containing 10 µM of the MSMs and 0.3 mM DTNB was incubated for 20 min with the enzyme solution ([…]) at 37 °C. […] Inhibition percentages were calculated from these values. […] Further, enzyme kinetics were studied using different substrate and inhibitor concentrations. Results were represented in a Lineweaver–Burk plot using GraphPad Prism, and the constant of inhibition (Ki) was estimated from the point at which the line cuts the x-axis in the secondary plot.

[3] = tested on: GNS166, GNS179, U87 and U251 cells; assay: Immunofluorescence of Ki67, p-H3 and cleaved caspase-3; format: cell-based, human; conditions: 1, 3 and 5 μM, 48 h
Experimental: For immunofluorescence assays, cells were seeded at a density of 2 × 10^4 cells/well in 8-well immunofluorescence chambers (LabTek Thermo, Waltham, MA, USA) and incubated overnight. Then, cells were treated for 48 h and fixed with 4% PFA. Primary antibodies against phospho-histone H3 (p-H3) (Abcam), cleaved caspase-3 (Casp3) (R&D Systems, Minneapolis, MN, USA) and Ki67 (Abcam) and secondary antibodies Alexa Fluor anti-mouse and anti-rabbit (Invitrogen, Carlsbad, CA, USA) were used. Nuclei were stained with DAPI (Sigma-Aldrich). Pictures were taken with an Axio Observer 7 epifluorescence microscope, and Qupath version 0.6.0 was used for quantifications. Percentages of Ki67-, p-H3- and Casp3-positive cells were calculated, taking into account the number of nuclei.

[4] = tested on: NHA primary human astrocytes; assay: MTT cell viability, NHA; format: cell-based; conditions: Astrocyte, 72 h, non-tumor cells
Experimental: (§2) U87-MG, U251-MG and NCI-H1299 cells were purchased from ATCC, while MKN45 was obtained from the Leibniz Institute DSMZ-German Collection of Microorganisms and Cell Cultures and the RWP1 cell line was kindly provided by Dr. Francisco Real. Cells were cultured in DMEM or RPMI (Gibco, Waltham, MA, USA) supplemented with 10% FBS, 100 U/mL penicillin and streptomycin and 2 mM L-Glutamine. Patient-derived glioma neural stem cells (GNS166 and GNS179) were kindly provided by Dr. Steve Pollard. These cells were cultured in adhesion plates treated with laminin A in DMEM/F12 media (Gibco) supplemented with N2 (Gibco), B27 (Gibco), D-(+)-Glucose solution 45% (Sigma-Aldrich, Burlington, MA, USA), basic Fibroblast Growth Factor (Gibco) and epidermal growth factor (Sigma-Aldrich). Normal human astrocytes (NHAs) were purchased from ScienCell and cultured using an astrocyte medium kit (ScienCell, San Diego, CA, USA) supplemented with FBS and Astrocyte Growth Supplement (AGS). All cells were maintained at standard conditions of 37 °C, 95% humidity, 21% O2 and 5% CO2, and cultures were regularly tested for Mycoplasma.
(§3) Cells were seeded in 96-well plates at a density of 1.5 × 10^3 or 5 × 10^3 cells/well (conventional cell lines or GNS and NHAs, respectively) and incubated overnight. […] Then, absorbance at 570 nm was measured. […]

BChE [5] = target: T2, BChE; assay: BChE inhibition, Ellman's colorimetric method; format: biochemical; conditions: 1 μM; read-out: ChE inhibition BChE %
AChE = AChE (Homo sapiens, UniProt P22303); assay: AChE inhibition, Ellman's colorimetric method; format: biochemical; conditions: read-out: ChE inhibition AChE %
Chain of AChE (P22303 32-614): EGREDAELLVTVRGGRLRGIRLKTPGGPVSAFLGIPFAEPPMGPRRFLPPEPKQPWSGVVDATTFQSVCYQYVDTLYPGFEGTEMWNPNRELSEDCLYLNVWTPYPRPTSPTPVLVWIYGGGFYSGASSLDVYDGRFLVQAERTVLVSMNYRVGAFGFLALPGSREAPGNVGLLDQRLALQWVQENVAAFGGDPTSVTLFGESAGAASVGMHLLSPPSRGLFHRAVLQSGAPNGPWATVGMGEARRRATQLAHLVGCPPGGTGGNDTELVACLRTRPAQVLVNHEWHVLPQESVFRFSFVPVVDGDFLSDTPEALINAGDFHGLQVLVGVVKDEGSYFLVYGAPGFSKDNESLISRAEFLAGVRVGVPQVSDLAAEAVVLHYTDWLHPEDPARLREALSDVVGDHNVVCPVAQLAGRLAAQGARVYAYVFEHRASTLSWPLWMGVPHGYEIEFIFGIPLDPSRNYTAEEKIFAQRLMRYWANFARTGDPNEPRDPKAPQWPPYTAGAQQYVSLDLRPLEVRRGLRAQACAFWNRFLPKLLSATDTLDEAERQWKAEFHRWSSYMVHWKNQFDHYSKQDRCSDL
Experimental: as §1

U251 glioma cells = assay: MTT cell viability, U251; format: cell-based; conditions: Homo sapiens, U-251, 72 h, read-out: IC50 U251 (GBM)
Experimental: as §2, §3

recombinant hMAO-A = target: T3, recombinant hMAO-A (Homo sapiens, UniProt P21397); assay: MAO-A inhibition assay; format: biochemical; conditions: increasing concentrations of inhibitor
T3 sequence (P21397 1-527): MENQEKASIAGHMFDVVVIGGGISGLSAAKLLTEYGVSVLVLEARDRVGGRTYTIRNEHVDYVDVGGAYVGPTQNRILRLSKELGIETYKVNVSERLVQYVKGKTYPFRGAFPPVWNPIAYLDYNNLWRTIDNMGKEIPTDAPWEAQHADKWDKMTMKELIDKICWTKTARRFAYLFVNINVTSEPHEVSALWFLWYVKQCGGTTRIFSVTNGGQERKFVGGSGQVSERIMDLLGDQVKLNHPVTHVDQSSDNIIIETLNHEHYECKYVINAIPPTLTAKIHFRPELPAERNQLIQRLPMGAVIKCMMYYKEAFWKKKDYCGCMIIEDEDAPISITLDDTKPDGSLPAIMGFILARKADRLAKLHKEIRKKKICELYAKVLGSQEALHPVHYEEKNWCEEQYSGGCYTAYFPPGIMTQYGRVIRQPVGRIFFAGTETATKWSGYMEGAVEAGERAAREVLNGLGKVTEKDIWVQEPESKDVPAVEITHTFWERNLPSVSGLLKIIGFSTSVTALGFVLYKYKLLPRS
Experimental: For MAO inhibition studies, the enzyme solution (0.5 U/mL recombinant hMAO-A or 1.5 U/mL recombinant hMAO-B) was incubated with an inhibitor solution containing 10 µM of the compounds for 30 min at 37 °C. Next, horseradish peroxidase (200 U/mL), Ampliflu Red (20 mM) and tyramine hydrochloride (100 mM) (Sigma-Aldrich) were added, and absorbance was measured at 570 nm every 5 min for 30 min. The percentage of inhibition was calculated from the absorbance values.

H1299 lung cancer cells = assay: MTT cell viability, H1299; format: cell-based, human
Experimental: as §2
(§4) Cells were seeded in 96-well plates at a density of 1.5 × 10^3 or 5 × 10^3 cells/well (conventional cell lines or GNS and NHAs, respectively) and incubated overnight. Next, cells were treated with increasing concentrations of the compounds, and after 72 h, they were incubated for 3.5 h with MTT. Then, absorbance at 570 nm was measured. GraphPad Prism software version 10.4.1 was used to calculate the IC50 values.

GNS166 cells = assay: RNA-seq; format: cell-based, human; conditions: 5 µM
Text: For transcriptomic analysis, total RNA was extracted and samples were sent to BGI Tech Solutions. […] Genes presenting a fold-change value ≥4 or ≤−4 and an FDR-adjusted p-value < 0.01 were defined as differentially expressed and used to perform downstream enrichment studies.

U87 glioblastoma cells = assay: MTT cell viability, U87; format: cell-based; conditions: Homo sapiens, 72 h, read-out: IC50 U87 (GBM)
Experimental: as §2, §4

[6] = tested on: GNS166 patient-derived glioma stem cells; assay: MTT cell viability, GNS166; format: cell-based; conditions: Homo sapiens, 72 h, read-out: IC50 GNS166 (GBM)
Experimental: as §2, §3

HDAC6 = assay: Western blot of acetylated α-tubulin (HDAC6 target); format: cell-based, human; conditions: GNS166 and U87 cells
Experimental: Sodium dodecyl sulfate–polyacrylamide gel electrophoresis was performed. Primary antibodies against HDAC1 (Abcam, Cambridge, UK) and HDAC6 (Cell Signaling, Dancers, MA, USA) and their main targets, acetylated H3 (Cell Signaling) and acetylated α-tubulin (Abcam), were used; acetylated lysine (Cell Signaling) and β-actin (Sigma-Aldrich) were used as endogenous controls. Secondary antibodies conjugated to horseradish peroxidase were anti-rabbit or anti-mouse (Cell Signaling). Proteins were detected using the iBright imaging system and NOVEX ECL Chemi Substrate or SuperSignal West Femto Maximum Sensitivity Substrate (ThermoFisher, Waltham, MA, USA).

## C#CCN1CCN(CCCOc2ccc3c(ccn3S(=O)(=O)c3ccc(C(=O)NNCCC)cc3)c2)CC1 [FRB56]
[1]
  body weight vs control animals: no statistically significant differences
Recombinant hMAO-B; 1 μM
  inhibition at 1 µM: 83%
Recombinant hMAO-B; 10 μM
  MAO inhibition MAO-B %: 90%
  inhibition at 10 µM: 89%
U87 subcutaneous tumors
  final tumor weight, lower compared to controls: 61.4%
U87 subcutaneous tumors; 3 days per week for 4 weeks, control ~750
  final tumor volume: ~ 280 mm^3
U87 subcutaneous tumors; resected tumors
  decrease in the number of Ki67-positive cells (IHC): around 30%
BChE [2]
  inhibition at 10 µM: 15%
[3]; all glioma cell types
  proliferative markers (Ki67- and p-H3-positive cells): clear reductions
[4]
  IC50: 26.6 µM
BChE [5]
  inhibition at 1 µM: 10%
AChE
  inhibition at 10 µM: 13%
U251 glioma cells
  IC50: 12 µM
Recombinant hMAO-A
  IC50: 1.68 µM
H1299 lung cancer cells; 72 h
  IC50: < 5 µM
H1299 lung cancer cells; Homo sapiens, NCI-H1299, 72 h
  IC50: 4.9 µM
GNS166 cells
  FC of CDKN1A (RNA-seq): 3.12 fold
  FC of MKI67 (RNA-seq): 0.06 fold
U87 glioblastoma cells
  IC50: ~1.5 µM
[6]
  IC50: 13.7 µM
HDAC6
  levels of acetyl-α-tubulin: increased

## CCCN(CCC)NC(=O)c1ccc(S(=O)(=O)n2ccc3cc(OC)ccc32)cc1 [FRB21]
U87 glioblastoma cells
  IC50: > 100 µM

## CN1CCc2c(c3ccccc3n2Cc2ccc(C(=O)NO)cc2)C1 [Tubastatin A]
[3]
  cleaved caspase-3-positive cells: slightly increased
HDAC6
  levels of acetyl-α-tubulin: higher levels of acetylated α-tubulin than the FRBs

## CCCNNC(=O)c1ccc(S(=O)(=O)n2ccc3cc(OC)ccc32)cc1 [FRB24]
U87 glioblastoma cells
  IC50: 7.1 µM
